Test results: paper PMC11259170, “Small-molecule probe for IBD risk variant GPR65 I231L alters cytokine signaling networks through positive allosteric modulation” (Science Advances, 2024)

Test system: GPR65 WT BMDCs
Assay: RNA sequencing of BMDCs, GPR65 WT
Type: cell-based, mouse
Procedure: BMDCs were differentiated from bone marrow from in Dulbecco’s modified Eagle’s medium (DMEM) [10% heat-inactivated fetal bovine serum (FBS), 1X GlutaMAX, 1% penicillin-streptomycin] containing recombinant murine granulocyte-macrophage colony-stimulating factor (rmGM-CSF) (20 ng/ml; Peprotech, 315-03) for 7 days, supplemented with additional DMEM + rmGM-CSF on day 3. Cells were then scraped and seeded at 1 × 10^5 cells per well in a 96-well microplate and allowed to adhere overnight.
Different media were prepared on the basis of target pH. pH 6.6: DMEM [10% FBS, 1% penicillin/streptomycin (p/s), 20 mM BES (MilliporeSigma, B4554), 1X Glutamax (Gibco, 35050061), 3.75 mM sodium bicarbonate, and 41.25 mM NaCl]. pH 7.2: DMEM (10% FBS, 1% p/s, 20 mM BES, 1X Glutamax, 7.5 mM sodium bicarbonate, and 36.5 mM NaCl). pH 7.6: DMEM 10% FBS, 1% p/s, 20 mM BES, 1X Glutamax, and 44 mM sodium bicarbonate. Media was allowed to equilibrate overnight at 37°C, 5% CO2 in a vented conical tube, and then adjusted to desired pH immediately before the stimulation using 1 M NaOH.
BMDCs were stimulated with different compounds and pH conditions while simultaneously challenged with zymosan (5 μg/ml; Invivogen, tlrl-zyn) for 2 hours. The treatment conditions were as follows: (i) pH 7.2 + DMSO, (ii) pH 7.2 + 20 μM BRD5075, (iii) pH 7.6 + DMSO, and (iv) pH 7.6 + 5 μM PGE2 (Tocris, 2296). Cells were lysed with a lysis/binding buffer (Invitrogen, A33562).
Libraries were prepared using a modified SmartSeq2 protocol. RNA lysates were purified with Dynabeads mRNA Direct Purification kit (Life Technologies, 61011), followed by reverse transcription with Maxima Reverse Transcriptase (Thermo Fisher Scientific, EP0742) and whole transcription amplification (WTA) with KAPA HotStart HiFi 2x ReadyMix (Kapa Biosystems, KK2601). WTA products were purified with Ampure XP beads (Beckman Coulter, A63880). RNA sequencing libraries were constructed using Nextera XT DNA Library Preparation kit (Illumina, FC-131-1096). Samples were purified with Ampure XP, pooled in equal quantities, then run on 2% E-gel EX (Invitrogen, G402022). Extracted library from ~250 to 800 bps with gel extraction kit (Zymo Research, D4008). The libraries were sequenced on an Illumina NextSeq 500 instrument with NextSeq 500/550 High Output v2 kit (Illumina, 20024906) and the following parameters: paired End: Index1 8, Index2 8, Read1 38, Read 2 38.
BCL files were converted to fastq using Bcl2Fastq. Fastq reads were aligned to the mouse reference genome mm10 using the STAR aligner ([55]), and counts assigned to genes using the RSEM package ([56]). The R/Bioconductor package DESeq2 ([57]) was used to identify differentially expressed (DE) genes. The data were not normalized or pre-processed in any way, as DESeq2 expects raw un-normalized counts as input. Genes with a Benjamini and Hochberg–corrected P value < 0.1 were considered statistically significant.

[1] = WT BMDCs, BRD5075 vs DMSO, pH 7.2

## Cc1ccc(NC(=O)c2cnn3c(O)cc(-c4ccc(COC(C)C)cc4)nc23)nc1 [BRD5075, O=C(NC1=NC=C(C)C=C1)C2=C3N(N=C2)C(O)=CC(C4=CC=C(COC(C)C)C=C4)=N3]
20 μM vs DMSO, pH 7.2
  Fos expression: up-regulated
  Socs3 and Cish expression: down-regulated
  Tnfrsf9, Tnfrsf26 and Tnfaip8 expression: down-regulated
  expression of inflammatory cytokine (Il12b, Il1b, Tnf) and chemokine (Ccl7, Ccl2, Ccl22, Cxcl1, Cxcl2, Cxcl3) genes: down-regulated
20 μM vs DMSO, pH 7.2, zymosan, 2 hours
  Mt1 and Mt2 expression: up-regulated
[1]
  log2FoldChange Acod1: -0.8043
  log2FoldChange Ahnak: -0.3498
  log2FoldChange Bcl2a1a: -0.4699
  log2FoldChange Bcl2a1b: -0.2827
  log2FoldChange Bcl2a1d: -0.38
  log2FoldChange Btg1: -0.3947
  log2FoldChange Cacnb3: -0.5998
  log2FoldChange Cap1: -0.3862
  log2FoldChange Car2: -0.6566
  log2FoldChange Ccl2: -0.6388
  log2FoldChange Ccl5: -0.8152
  log2FoldChange Ccl7: -1.049
  log2FoldChange Ccl22: -0.5298
  log2FoldChange Ccr7: -0.5607
  log2FoldChange Ccrl2: -0.6903
  log2FoldChange Cd14: -0.4004
  log2FoldChange Cd86: -0.6053
  log2FoldChange Cdc37: -0.5925
  log2FoldChange Cdc42ep2: -0.4809
  log2FoldChange Cebpb: -0.9437
  log2FoldChange Cflar: -0.6547
  log2FoldChange Cish: -0.8764
  log2FoldChange Clec4e: -0.6037
  log2FoldChange Coro1a: -0.3668
  log2FoldChange Cxcl1: -0.8744
  log2FoldChange Cxcl2: -0.4995
  log2FoldChange Cxcl3: -0.5082
  log2FoldChange Cytip: -0.4125
  log2FoldChange Ddx5: -0.3311
  log2FoldChange Ehd1: -0.3665
  log2FoldChange Eif1a: -0.4662
  log2FoldChange Fam177a: -0.5633
  log2FoldChange Flrt3: -0.6822
  log2FoldChange Fos: 0.7626
  log2FoldChange Fscn1: -1.127
  log2FoldChange Gem: -0.7493
  log2FoldChange Ghitm: -0.3657
  log2FoldChange Gpr84: -0.6049
  log2FoldChange H2-Ab1: -0.3044
  log2FoldChange H2-D1: -0.3663
  log2FoldChange H2-K1: -0.4443
  log2FoldChange H2-Q4: -0.9033
  log2FoldChange H2-Q6: -0.6888
  log2FoldChange H2-Q7: -0.7384
  log2FoldChange Hivep3: -0.8888
  log2FoldChange Hnrnpab: -0.4744
  log2FoldChange Ier3: -0.643
  log2FoldChange Ifitm1: -0.5428
  log2FoldChange Ifitm3: -0.5054
  log2FoldChange Il1b: -1.038
  log2FoldChange Il1rn: -0.3871
  log2FoldChange Il12b: -0.7451
  log2FoldChange Inhba: -0.8833
  log2FoldChange Irf8: -0.5092
  log2FoldChange Lrrc58: -0.5089
  log2FoldChange Malt1: -0.6085
  log2FoldChange Marcksl1: -0.8077
  log2FoldChange Myo9b: -0.609
  log2FoldChange Nfe2l2: -0.3368
  log2FoldChange Nfkb2: -0.6827
  log2FoldChange Nfkbia: -0.3317
  log2FoldChange Nfkbid: -0.8151
  log2FoldChange Nfkbie: -0.5542
  log2FoldChange Pde4b: -0.698
  log2FoldChange Plau: -0.5236
  log2FoldChange Plek: -0.4983
  log2FoldChange Ptafr: -0.4512
  log2FoldChange Ptgs2: -0.6129
  log2FoldChange Ptpn6: -0.3496
  log2FoldChange Rasgef1b: -0.4887
  log2FoldChange Rgs1: -0.3869
  log2FoldChange Rps28: 0.3044
  log2FoldChange Rsad2: -0.6161
  log2FoldChange S100a8: -0.9378
  log2FoldChange S100a9: -1.055
  log2FoldChange Samsn1: -0.5214
  log2FoldChange Sat1: -0.2878
  log2FoldChange Sel1l: -0.4914
  log2FoldChange Sh3bgrl: -0.3277
  log2FoldChange Slc3a2: -0.6173
  log2FoldChange Slc7a11: -0.4778
  log2FoldChange Slfn2: -0.3087
  log2FoldChange Socs3: -0.448
  log2FoldChange Sqstm1: -0.4417
  log2FoldChange Srgn: -0.3315
  log2FoldChange Stub1: -0.4634
  log2FoldChange Syngr2: -0.3646
  log2FoldChange Tfec: -0.8287
  log2FoldChange Tlr2: -0.455
  log2FoldChange Tmem123: -0.5279
  log2FoldChange Tmsb10: 0.5333
  log2FoldChange Tnf: -0.4212
  log2FoldChange Tnfaip8: -0.4539
  log2FoldChange Tnfrsf9: -0.6055
  log2FoldChange Tnfrsf26: -0.4775
  log2FoldChange Tnip3: -0.5262
  log2FoldChange Ybx1: -0.4889
  log2FoldChange mt-Atp8: 0.4788
